Measured values taken from patent publication US20250319054A1, “Synthetic Eicosanoid Analogues for the Treatment and Prevention of Diseases Associated with Increased GDF15 Plasma Concentration” (OMEICOS Therapeutics GmbH, priority 2021, published 2025).

Tests used:
[1] = test system: GDF-15; assay: Clinical phase II study: GDF-15 plasma concentration (sandwich ELISA); format: in vivo, human; conditions: baseline to end-of-treatment (3 months); dose-dependent
Description: (§1) In a clinical phase II study 119 patients with persistent atrial fibrillation were investigated with regard to the effect of treatment with Compound-02 (structure of general formula (VI)). The patients were divided into a placebo group and three treatment groups with different dosing of Compound-02. The low, medium and high dosing groups received an oral once daily dosing of 4 mg, 12 mg or 24 mg of Compound-02, respectively.
(§2) The study participants received an implantable cardiac monitor (ICM) at least one week prior to start of treatment with Compound-02. The treatment with Compound-02 was maintained for a total period of three months (i.e. Day 1 to Day 99) and started at least 1 week prior to direct current cardioversion (DCC) (see FIG. 1 for details of study protocol).
(§3) Plasma samples were taken from the patients at different study visits. Biomarkers were analyzed at baseline (V3) and at the end of treatment (V8). For 119 study participants complete sets of biomarkers could be obtained.
GDF-15 concentrations were measured in EDTA treated plasma samples with a solid phase sandwich ELISA (Human GDF-15 Quantikine ELISA kit, R&D Systems) using an immobilized mouse monoclonal anti-GDF-15 and a horseradish peroxidase-conjugated monoclonal anti-GDF-15 antibody. […] The reaction product is measured spectrophotometrically at 450 nm (Sunrise Absorbance Reader, TECAN).

[2] = test system: IL-6; assay: Clinical phase II study: IL-6 plasma concentration; format: in vivo, human
Description: as §1, §2, §3

[3] = test system: PTX-3; assay: Clinical phase II study: PTX-3 plasma concentration; format: in vivo, human; conditions: baseline to end-of-treatment (3 months); dose-dependent
Description: as §1, §2, §3

[4] = test system: patients with persistent atrial fibrillation; assay: Clinical phase II study: safety; format: in vivo, human; conditions: oral once daily 4, 12 or 24 mg, three months
Description: as §1, §2

[5] = test system: patients suffering from CAD; conditions: CANTOS study patients with reduced circulating IL-6 levels; cited from earlier work
[6] = test system: IL-6; conditions: CANTOS study, 4833 CAD patients; cited from earlier work

Row | Molecule | reduction of GDF-15 plasma concentration vs. placebo [1] [%] | reduction of IL-6 plasma concentration vs. placebo ([2]; baseline to end-of-treatment (3 months), dose-dependent) [%] | reduction of IL-6 levels in response to treatment ([2]; clinical study) | reduction of PTX-3 plasma concentration vs. placebo [3] [%] | changes in the ECG or other types of arrhythmias [4] | safety profile [4] | reduction in major adverse cardiac events (MACE) compared to the placebo group [5] [%] | circulating IL-6 levels [6]
1 | CNC(=O)C(=O)NCCCC/C=C\CCCCCCCOCC(=O)O [Compound-02] | 30 | 30 | 25-40% | 55 | no changes | good safety profile | – | –
2 | Canakinumab: anti-IL-1β antibody that modulates the IL-6 pathway | – | – | – | – | – | – | 32 | reduces circulating IL-6 levels
